Here are results for 3 compounds from PMC6748948, “A Bone Morphogenetic Protein (BMP)-derived Peptide Based on the Type I Receptor-binding Site Modifies Cell-type Dependent BMP Signalling” (Scientific Reports, 2019).

Peptide text beside a SMILES is read from it.

The subject of one experiment is BMP4 binding to ALK3-Fc. The experiment in a line: SPR, BMP4 binding to ALK3-Fc in the presence of peptide. Particulars: BMP4 50 nM, peptide 0.25-1 mM, compared with P3. How it is done: Peptide-receptor binding assays were performed using Biacore T200 biosensor (Biacore/GE Healthcare). ALK1-Fc, ALK2-Fc or ALK3-Fc was covalently linked onto individual flow cells of a research grade CM5 chip (GE Healthcare) via amine-coupling using standard manufacturer’s protocol. One flow cell was used as a control for subtracting non-specific binding. Peptides were injected over the immobilised chip at various concentrations up to 1 mM at a flow rate of 30 μl/min for 3 min at 37 °C in running buffer containing 0.01 M HEPES, 0.5 M NaCl, 3 mM EDTA and 0.005% v/v Surfactant P20 (pH 7.4). At the end of each peptide injection, the chip surface was regenerated with 4 M Guanidine hydrochloride (GnHCl). The biotinylated peptide P3* was immobilised onto a streptavidin (SA) chip (GE Healthcare) following the manufacturer’s protocol. Binding assays were carried out using a similar protocol as described above, only with a different injection time of 4 min. For BMP9-ALK1 and BMP4-ALK3 binding assays, BMP9 and BMP4 were added at 50 nM alone or in the presence of peptide P3 or P3r at 0.25 mM, 0.5 mM or 1 mM. Each cycle was set with a dissociation time of 12 min. Duplicated injections were performed for each ligand along with buffer blanks. The equilibrium dissociation constant KD was determined by fitting the data to a steady-state model using BIAevaluation software (GE Healthcare). […]

The test system of experiment [1] is Smad1/5 phosphorylation in HMEC-1. The experiment is described as follows: BMP4-induced Smad1/5 phosphorylation in HMEC-1. It counts as cell-based, human. As to conditions: peptide 250 μM, BMP4 0.3 ng/ml (11.54 pM GFD dimer), N = 3.
In experiment [2] the test system is ALP activity in C2C12 cells. The experiment in a line: BMP9-induced ALP activity in C2C12 cells. The class given is cell-based, mouse. As to conditions: peptide 160 μM with BMP9, 65 h, DMEM 0.25% FBS, three independent experiments in duplicate. As to the method:
C2C12 mouse myoblasts were seeded in 24-well plates at 25,000 cells/well with antibiotics for 48 h. Treatments were performed in DMEM, 0.25% FBS with antibiotics in a final volume of 1.1 ml for 65 h. Cells were harvested and lysed in 1% Triton-X100 in PBS and the extracted total protein was quantified by Bio-Rad DC^TM protein assay (Bio-Rad). ALP activity was determined by incubating 15 μg of the total protein with ALP substrate p-nitrophenyl phosphate (PNPP, Sigma-Aldrich) and absorbance of the product p-nitrophenol (PNP) was recorded at 405 nm in 5 min intervals for 1 h. The relative ALP activity was expressed as fold change to the BMP9-treated control with data presented as means ± S.E.

The subject of experiment [3] is Smad1/5 phosphorylation in hPAECs. The experiment is described as follows: BMP9-induced Smad1/5 phosphorylation assay in hPAECs (immunoblot). It counts as cell-based, human. Particulars: BMP9 0.03 ng/ml (1.24 pM GFD dimer), peptide 250 μM (P3 also dose-dependent), 40 min, serum-starved, immunoblot densitometry. As to the method:
Endothelial cells were seeded in 6-cm dishes at 9 × 10^5 cells/dish and cultured for 24 hours (h) to full confluence, and then serum-starved for 16 h before treatments with control buffer, BMP9 alone, BMP9 with peptides, or peptides alone. After 40 min, cells were washed once with PBS and snap-frozen on dry ice to harvest. Cells were then lysed with buffer containing 125 mM Tris-HCl (pH 6.8), 2% SDS and 10% glycerol. The total protein concentration was determined using the DC^TM protein assay (Bio-Rad), of which 30 μg of total cell proteins was fractionated on 12% SDS-PAGE under non-reducing condition. The phosphorylation of Smad1/5 and total Smad1 were detected by anti-phospho-Smad1/5 antibody (9516 S) and anti-Smad 1 antibody (9743 S). The intensity of pSmad1/5 bands were quantified using ImageJ software, using β-actin or α-tubulin as the loading control.

Another experiment has as its target ALK3. As to conditions: ALK3 expressed from different host cells; read-out: KD values of BMP4 for ALK3; cited from earlier work. How it is done:
(§1) It is intriguing why the same peptide could promote BMP9 signalling in PAECs while inhibit BMP4 signalling in HMECs, an effect which is also recapitulated in the SPR binding studies (Fig. 4A–D, Supplemental Fig. 4). Whilst it is difficult to provide a direct structural explanation, this may relate to the difference in affinities and concentrations of the receptors for the ligands. ALK1 binds BMP9 with affinity of around 0.03 nM[8]. The reported KD values of BMP4 for ALK3 (with ALK3 expressed from different host cells) are 1–10 nM[30],[31]. It is plausible that the inhibitory effect of P3 on BM ...

The next experiment deals with ALK1. As to conditions: read-out: affinity of ALK1 for BMP9; cited from earlier work. How it is done: as §1

Regarding `CC[C@H](C)[C@H](NC(=O)[C@H](CC(=O)O)NC(=O)[C@@H](NC(=O)[C@@H](NC(=O)[C@H](CCCCN)NC(=O)[C@H](Cc1ccccc1)NC(=O)[C@@H](NC(=O)[C@H](CCCCN)NC(=O)[C@H](CC(=O)O)NC(=O)[C@H](CC(C)C)NC(=O)[C@H](CCC(N)=O)NC(=O)[C@H](C)NC(=O)[C@@H]1CCCN1C(=O)[C@@H](NC(=O)[C@@H](NC(=O)[C@H](CS)NC(=O)[C@@H](NC(=O)[C@@H]1CCCN1)[C@@H](C)O)[C@@H](C)O)[C@@H](C)O)C(C)C)[C@@H](C)O)[C@@H](C)O)C(=O)N[C@@H](Cc1c[nH]cn1)C(=O)N[C@@H](Cc1ccccc1)C(=O)N[C@@H](CS)C(=O)N[C@@H](Cc1c[nH]cn1)C(=O)N[C@@H](CC(C)C)C(=O)O` [Peptide P3r] (H-PTCTTPAQLDKVFKTTDIHFCHL-OH; N-terminus and C-terminus assumed), the “competing BMP4 binding to ALK3 (in words)” value in the experiment with BMP4 binding to ALK3-Fc is reported as “much less effective”. The “effect on BMP4-induced Smad1/5 phosphorylation in HMEC-1” value in experiment [1] is given as “failed to inhibit”. Also, the “effect on BMP9-induced ALP activity in C2C12 cells” value in experiment [2] is recorded as “No difference”. The “effect on BMP9-induced Smad1/5 phosphorylation in hPAECs” value in experiment [3] was “significantly enhanced”.

On to “BMP4: bone morphogenetic protein 4, growth factor”, for which the Kd on ALK3 is 1 to 10 nM.

On to “BMP9: bone morphogenetic protein 9, growth factor”, for which the Kd on ALK1 is roughly 0.03 nM.
